Data: patent US8592464B2, “Nitric oxide furoxan derivative compounds endowed with antitumoral activity” (Humanitas Mirasole S.p.A., priority 2009, dated 2013)

Columns and labels:
[1] = system: cytolytic activity of CD8+ T cells against allogenic (MBL-2) target cells; assay: Chromium release assay (in vitro cytotoxicity), B6+C26GM culture: immunosuppressed splenocytes from tumor-bearing mice; type: cell-based; conditions: strong immunosuppressive conditions, 5-h 51Cr-release
[2] = system: cytolytic activity of CD8+ T cells against allogenic (MBL-2) target cells; assay: Chromium release assay (in vitro cytotoxicity), B6+Balb+3% CD11b+ mixed leucocytes culture; type: cell-based, mice; conditions: 5-h 51Cr-release
coloncarcinoma26 = assay: Immunohistochemistry of tumors of tumor-bearing mice after oral AT38; type: in vivo, BALB/c mice; conditions: 10, 30 and 100 mg/kg/day orally for nine days; compared to untreated controls

Row | melting point [°C] | Structure (SMILES) | Range of concentration to rescue cytolytic activity [1] | further results
1 | 171 to 172 | NC(=O)c1c(COC(=O)c2ccc(Cl)cc2)no[n+]1[O-] | – | –
2 | 190 to 191 | N#Cc1ccc(C(=O)OCc2no[n+]([O-])c2C(N)=O)cc1 | – | –
3 | 163 to 165 | NC(=O)c1c(COC(=O)c2ccccc2)no[n+]1[O-] (hydrate or solvate) | – | –
4 | 206 to 208 | NC(=O)c1c(COC(=O)c2ccc(N)cc2)no[n+]1[O-] (hydrate or solvate) | – | –
5 | 176 to 177 | NC(=O)c1c(COC(=O)c2ccccc2O)no[n+]1[O-] (hydrate or solvate) | – | –
6 | 203 to 204 | NC(=O)c1c(COC(=O)c2cccc(O)c2)no[n+]1[O-] (hydrate or solvate) | – | –
7 | 241 to 242 | NC(=O)c1c(COC(=O)c2ccc(O)cc2)no[n+]1[O-] (hydrate or solvate) | – | –
8 | 163 to 164 | NC(=O)c1c(COC(=O)c2ccc(F)cc2)no[n+]1[O-] (hydrate or solvate) | – | –
9 | 172 to 173 | NC(=O)c1c(COC(=O)c2ccc([N+](=O)[O-])cc2)no[n+]1[O-] (hydrate or solvate) | – | –
10 | 149 to 150 | Cc1ccc(C(=O)OCc2no[n+]([O-])c2C(N)=O)cc1 (hydrate or solvate) | – | –
11 | 175 to 176 | COc1ccc(C(=O)OCc2no[n+]([O-])c2C(N)=O)cc1 (hydrate or solvate) | – | –
12 | – | CC(=O)OCc1no[n+]([O-])c1C(N)=O [AT24] | INEFFECTIVE | Range of concentration to rescue cytolytic activity [2]: INEFFECTIVE
13 | – | CC(=O)OCc1no[n+]([O-])c1C#N [AT25] | INEFFECTIVE | –
14 | – | CC(=O)Oc1ccccc1C(=O)OCc1no[n+]([O-])c1C(N)=O [AT27] | 25 µM | –
15 | – | NC(=O)c1c(COC(=O)c2ccccc2O)no[n+]1[O-] [AT38] | 25 µM | CD3+ T tumor infiltrating lymphocytes (coloncarcinoma26): enhancement; nitrotyrosine staining (coloncarcinoma26): strong reduction
16 | – | NC(=O)c1c(COc2ccc(C(=O)O)c(O)c2)no[n+]1[O-] [AT43] | INEFFECTIVE | –
17 | – | NC(=O)c1c(COC(=O)c2ccccc2)no[n+]1[O-] [AT44] | INEFFECTIVE | Range of concentration to rescue cytolytic activity [2]: 76 µM
18 | – | NC(=O)c1c(COC(=O)c2ccc(O)cc2)no[n+]1[O-] [AT45] | 100 µM | Range of concentration to rescue cytolytic activity [2]: 72 µM
19 | – | NC(=O)c1c(COC(=O)c2cccc(O)c2)no[n+]1[O-] [AT47] | 50 µM | –
20 | – | NC(=O)c1c(S(=O)(=O)c2ccccc2)no[n+]1[O-] [AT94] | INEFFECTIVE | –
21 | – | NC(=O)c1c(COC(=O)/C=C/c2ccccc2)no[n+]1[O-] [AT110] | 100 µM | –
22 | – | NC(=O)c1c(COC(=O)c2cccnc2)no[n+]1[O-] [AT112] | 200 µM | –
23 | – | NC(=O)c1c(COC(=O)/C=C/c2ccccc2O)no[n+]1[O-] [AT113] | 100 µM | –
